Test results: patent US20240350503A1, “COMPOUNDS FOR TREATMENT OF VIRAL INFECTIONS BY NEUROTROPIC VIRUS” (priority 2021, published 2024)
Entries after “also recorded” stand apart in the source; their conditions may differ.

Tested on: SARS-CoV-2
Assay type: cell-based, SARS-CoV-2 alpha variant

`c1ccc(-c2ccc(CNc3nc(-c4ccccn4)nnc3-c3ccccc3)cc2)cc1` [ML228] was tested. Which “SARS-CoV-2 replication (virus N2 RNA level)” value did it give?
The value was “strongly reduced; also recorded: significantly decreased”.
